Laboratory results taken from ChEMBL document CHEMBL2021784, “Geopyxins A-E, ent-kaurane diterpenoids from endolichenic fungal strains Geopyxis aff. majalis and Geopyxis sp. AZ0066: structure-activity relationships of geopyxins and their analogues” (J Nat Prod, 2012).
Active and inactive are the calls of the source. No cut-off for these calls is given here.

Assays:
Assay type in all cases: functional, cell-based
SF-268 [1] = assay: Cytotoxicity against human SF268 cells after 72 hrs by Alamar blue assay; conditions: SF-268, 72 h
MCF7 [2] = assay: Cytotoxicity against human MCF7 cells after 72 hrs by Alamar blue assay; conditions: MCF7, 72 h
MDA-MB-231 [3] = assay: Cytotoxicity against human MDA-MB-231 cells after 72 hrs by Alamar blue assay; conditions: MDA-MB-231, 72 h
[4] = Cytotoxicity against human PC3M cells after 72 hrs by Alamar blue assay; conditions: PC-3M
NCI-H460 [5] = assay: Cytotoxicity against human NCI-H460 cells after 72 hrs by Alamar blue assay; conditions: NCI-H460, 72 h
Fibroblast = assay: Induction of heat shock response in mouse fibroblasts expressing GFP at 2.5 uM after overnight incubation by fluorescence assay
MCF7 [6] = assay: Cytotoxicity against human MCF7 cells at 5 uM after 72 hrs by Alamar blue assay
SF-268 [7] = assay: Cytotoxicity against human SF268 cells at 5 uM after 72 hrs by Alamar blue assay
PC-3M = assay: Cytotoxicity against human PC3M cells at 5 uM after 72 hrs by Alamar blue assay
NCI-H460 [8] = assay: Cytotoxicity against human NCI-H460 cells at 5 uM after 72 hrs by Alamar blue assay
MDA-MB-231 [9] = assay: Cytotoxicity against human MDA-MB-231 cells at 5 uM after 72 hrs by Alamar blue assay

Question: With `C=C1C(=O)[C@]23C[C@H]1CC[C@H]2[C@]1(C)CCC[C@@](C)(C(=O)O)[C@H]1C[C@@H]3O` [GEOPYXIN B] as the compound, how does the IC50 (SF-268 [1]) read?
Answer: 2350 nM

Question: What about the IC50 (MCF7 [2]) of the same compound?
Answer: 4320 nM

Question: And the IC50 (MDA-MB-231 [3])?
Answer: 3310 nM

Question: What about the IC50 [4] of the same compound?
Answer: 5410 nM

Question: And the IC50 (NCI-H460 [5])?
Answer: 2250 nM

Question: And the Activity (Fibroblast)?
Answer: Active

Question: What does the source list for `C=C1C(=O)[C@]23C[C@H]1CC[C@H]2[C@]1(C)[C@@H](O)CC[C@@](C)(C(=O)O)[C@H]1C[C@@H]3O`?
Answer: Activity (MCF7 [6]): inactive; Activity (SF-268 [7]): inactive; Activity (PC-3M): inactive; Activity (NCI-H460 [8]): inactive; Activity (MDA-MB-231 [9]): inactive

Question: Which IC50 (SF-268 [1]) does the source give for `C=C1C(=O)[C@]23C[C@H]1CC[C@H]2[C@]1(C)[C@@H](O)CC[C@@](C)(C(=O)OC)[C@H]1C[C@@H]3O` [METHYLGEOPYXIN A] here?
Answer: 720 nM

Question: What about the IC50 (MCF7 [2]) of the same compound?
Answer: 790 nM

Question: And the IC50 (MDA-MB-231 [3])?
Answer: 730 nM

Question: And the IC50 [4]?
Answer: 2270 nM

Question: And the IC50 (NCI-H460 [5])?
Answer: 1080 nM

Question: And the Activity (Fibroblast)?
Answer: inactive

Question: Which results are given for `C=C1C(=O)[C@]23C[C@H]1CC[C@H]2[C@]1(C)C(=O)CC[C@@](C)(C(=O)O)[C@H]1C[C@@H]3O`?
Answer: Activity (MCF7 [6]): inactive; Activity (SF-268 [7]): inactive; Activity (PC-3M): inactive; Activity (NCI-H460 [8]): inactive; Activity (MDA-MB-231 [9]): inactive

Question: With `C=C1C(=O)[C@]23C[C@H]1CC[C@H]2[C@]1(C)[C@@H](OC(C)=O)CC[C@@](C)(C(=O)O)[C@H]1C[C@@H]3OC(C)=O` as the compound, how does the Activity (MCF7 [6]) read?
Answer: inactive

Question: And the Activity (SF-268 [7])?
Answer: inactive

Question: And the Activity (PC-3M)?
Answer: inactive

Question: And the Activity (NCI-H460 [8])?
Answer: inactive

Question: And the Activity (MDA-MB-231 [9])?
Answer: inactive

Question: Which results are given for `C=C1C(=O)[C@]23C[C@H]1CC[C@H]2[C@]1(C)[C@@H](OC(C)=O)CC[C@@](C)(C(=O)OC)[C@H]1C[C@@H]3OC(C)=O`?
Answer: IC50 (SF-268 [1]): 1180 nM; IC50 (MCF7 [2]): 1180 nM; IC50 (MDA-MB-231 [3]): 1930 nM; IC50 [4]: 2310 nM; IC50 (NCI-H460 [5]): 1260 nM; Activity (Fibroblast): inactive

Question: For `C=C1C(=O)[C@]23C[C@H]1CC[C@H]2[C@]1(C)[C@@H](O)[C@@H](O)C[C@@](C)(C(=O)OC)[C@H]1C[C@@H]3O` [METHYLGEOPYXIN E], which IC50 (SF-268 [1]) is on record?
Answer: 1020 nM

Question: What about the IC50 (MCF7 [2]) of the same compound?
Answer: 2080 nM

Question: And the IC50 (MDA-MB-231 [3])?
Answer: 3810 nM

Question: And the IC50 [4]?
Answer: 3990 nM

Question: What about the IC50 (NCI-H460 [5]) of the same compound?
Answer: 2270 nM

Question: And the Activity (Fibroblast)?
Answer: inactive

Question: With `C=C1C(=O)[C@]23C[C@H]1CC[C@H]2[C@]1(C)[C@@H](OC(C)=O)CC[C@@](C)(C(=O)OC)[C@H]1C[C@@H]3O` as the compound, how does the IC50 (SF-268 [1]) read?
Answer: 660 nM

Question: And the IC50 (MCF7 [2])?
Answer: 530 nM

Question: And the IC50 (MDA-MB-231 [3])?
Answer: 1150 nM

Question: What about the IC50 [4] of the same compound?
Answer: 1540 nM

Question: And the IC50 (NCI-H460 [5])?
Answer: 820 nM

Question: And the Activity (Fibroblast)?
Answer: Active

Question: Which Activity (MCF7 [6]) does the source give for `COC(=O)[C@]1(C)CC[C@H](O)[C@@]2(C)[C@@H]3CC[C@@H]4C[C@]3(C(=O)[C@@H]4CO)[C@@H](O)C[C@@H]21` here?
Answer: inactive

Question: What about the Activity (SF-268 [7]) of the same compound?
Answer: inactive

Question: And the Activity (PC-3M)?
Answer: inactive

Question: What about the Activity (NCI-H460 [8]) of the same compound?
Answer: inactive

Question: And the Activity (MDA-MB-231 [9])?
Answer: inactive

Question: With `C=C1C(=O)[C@]23C[C@H]1CC[C@H]2[C@]1(C)C(=O)CC[C@@](C)(C(=O)OC)[C@H]1C[C@@H]3O` [METHYLGEOPYXIN C] as the compound, how does the IC50 (SF-268 [1]) read?
Answer: 1560 nM

Question: And the IC50 (MCF7 [2])?
Answer: 1670 nM

Question: What about the IC50 (MDA-MB-231 [3]) of the same compound?
Answer: 3380 nM

Question: And the IC50 [4]?
Answer: 3630 nM

Question: And the IC50 (NCI-H460 [5])?
Answer: 2280 nM

Question: And the Activity (Fibroblast)?
Answer: inactive

Question: Which IC50 (SF-268 [1]) does the source give for `COc1cccc2c1C(=O)c1c(O)c3c(c(O)c1C2=O)C[C@@](O)(C(=O)CO)C[C@@H]3O[C@H]1C[C@H](N)[C@H](O)[C@H](C)O1` [DOXORUBICIN] here?
Answer: 620 nM

Question: What about the IC50 (MCF7 [2]) of the same compound?
Answer: 420 nM

Question: What about the IC50 (MDA-MB-231 [3]) of the same compound?
Answer: 580 nM

Question: And the IC50 [4]?
Answer: 240 nM

Question: What about the IC50 (NCI-H460 [5]) of the same compound?
Answer: 420 nM

Question: Which results are given for `C=C1C(=O)[C@]23C[C@H]1CC[C@H]2[C@]1(C)CCC[C@@](C)(C(=O)OC)[C@H]1C[C@@H]3O` [METHYLGEOPYXIN B]?
Answer: IC50 (SF-268 [1]): 690 nM; IC50 (MCF7 [2]): 630 nM; IC50 (MDA-MB-231 [3]): 910 nM; IC50 [4]: 1480 nM; IC50 (NCI-H460 [5]): 920 nM; Activity (Fibroblast): inactive

Question: What does the source list for `C=C1C(=O)[C@]23C[C@H]1C[C@H](O)[C@H]2[C@]1(C)CCC[C@@](C)(C(=O)O)[C@H]1C[C@@H]3O`?
Answer: Activity (MCF7 [6]): inactive; Activity (SF-268 [7]): inactive; Activity (PC-3M): inactive; Activity (NCI-H460 [8]): inactive; Activity (MDA-MB-231 [9]): inactive

Question: Which IC50 (SF-268 [1]) does the source give for `C=C1C(=O)[C@]23C[C@H]1CC[C@H]2[C@]1(C)[C@@H](OC(C)=O)CC[C@@](C)(C(=O)O)[C@H]1C[C@@H]3O` here?
Answer: 2370 nM

Question: What about the IC50 (MCF7 [2]) of the same compound?
Answer: 3480 nM

Question: And the IC50 (MDA-MB-231 [3])?
Answer: 4110 nM

Question: And the IC50 [4]?
Answer: 3880 nM

Question: What about the IC50 (NCI-H460 [5]) of the same compound?
Answer: 3520 nM

Question: What about the Activity (Fibroblast) of the same compound?
Answer: inactive

Question: For `C=C1C(=O)[C@]23C[C@H]1CC[C@H]2[C@]1(C)[C@@H](O)[C@@H](O)C[C@@](C)(C(=O)O)[C@H]1C[C@@H]3O`, which Activity (MCF7 [6]) is on record?
Answer: inactive

Question: What about the Activity (SF-268 [7]) of the same compound?
Answer: inactive

Question: And the Activity (PC-3M)?
Answer: inactive

Question: What about the Activity (NCI-H460 [8]) of the same compound?
Answer: inactive

Question: What about the Activity (MDA-MB-231 [9]) of the same compound?
Answer: inactive

Question: With `C[C@]12[C@@H]3CC[C@@H]4C[C@]3(C(=O)[C@@H]4CO)[C@@H](O)C[C@@H]1[C@](C)(C(=O)O)CC[C@@H]2O` as the compound, how does the Activity (MCF7 [6]) read?
Answer: inactive

Question: And the Activity (SF-268 [7])?
Answer: inactive

Question: What about the Activity (PC-3M) of the same compound?
Answer: inactive

Question: And the Activity (NCI-H460 [8])?
Answer: inactive

Question: And the Activity (MDA-MB-231 [9])?
Answer: inactive
